From US12692269B2, “Therapeutic compounds” (Genentech, Inc., priority 2019, dated 2026)

What was measured:
Format in all cases: binding
TEAD1 YAP50-100 = TEAD1 YAP50-100 (Homo sapiens, UniProt P28347); assay: TEAD1-YAP HTRF (TR-FRET) protein-protein interaction assay; settings: TEAD1, YAP peptide 50-100, HTRF; for EC50: read-out: TEAD1 YAP50-100 HTRF combined: EC50
Description: (§1) Purified His-tagged TEAD protein (YAP Binding Domain, amino acids 217-447) is pre-incubated with Europium labelled anti-His antibody tracer (Perkin Elmer Cat #AD0110). Small molecule Inhibitors are then incubated with the TEAD-Eu protein complex for 30 minutes to allow for binding to TEAD protein. Biotinylated YAP peptide for TEAD-YAP assays (AA's 50-100) or biotinylated TAZ peptide for TEAD-TAZ assays (AA's 13-57) that has been pre-incubated with streptavidin-xl665 acceptor (CIS-Bio Cat #610SAXAC) or is added to the compound-TEAD mix. The TEAD-YAP-inhibitor mixture is then incubated for 60 minutes at room temperature. All reactions are carried out in a polystyrene plate. After 60 minutes, the plate is read on a plate reader using TR-FRET mode with wavelengths of 665 nm/615 nm. If YAP or TAZ binds to TEAD as expected, a TR-FRET signal results from the proximity of YAP or TAZ and TEAD after binding. If an inhibitor such as peptide 17 (Selleckchem Cat #58164) interferes with YAP-TEAD or TAZ-TEAD binding, the disruption of the YAP or TAZ:TEAD interaction results in a decrease in TR-FRET signal. The potency of compounds as YAP:TEAD or TAZ:TEAD protein-protein interaction (PPi) inhibitors is determined by an IC50 or EC50 value generated using a non-linear four parameter curve fit.

TEAD2 YAP50-100 = TEAD2 YAP50-100 (Homo sapiens, UniProt Q15562); assay: TEAD2-YAP HTRF (TR-FRET) protein-protein interaction assay; settings: TEAD2, YAP peptide 50-100, HTRF; for EC50: read-out: TEAD2 YAP50-100 HTRF combined: EC50
Description: as §1

TEAD3 YAP50-100 = TEAD3 YAP50-100 (Homo sapiens, UniProt Q99594); assay: TEAD3-YAP HTRF (TR-FRET) protein-protein interaction assay; settings: TEAD3, YAP peptide 50-100, HTRF; for EC50: read-out: TEAD3 YAP50-100 HTRF combined: EC50
Description: as §1

TEAD4 YAP50-100 = TEAD4 YAP50-100 (Homo sapiens, UniProt Q15561); assay: TEAD4-YAP HTRF (TR-FRET) protein-protein interaction assay; settings: TEAD4, YAP peptide 50-100, HTRF; for EC50: read-out: TEAD4 YAP50-100 HTRF combined: EC50
Description: as §1

[1] = target: TEAD1 TAZ (amino acids 13-57) (Homo sapiens, UniProt P28347); assay: TEAD1-TAZ HTRF (TR-FRET) protein-protein interaction assay; settings: for TEAD1 TAZ HTRF combined: Max % Inhibition: TEAD1, TAZ peptide; for EC50: TEAD1-TAZ HTRF, TR-FRET 665 nm/615 nm, read-out: TEAD1 TAZ HTRF combined: EC50
Description: as §1

[2] = target: TEAD2 TAZ (amino acids 13-57) (Homo sapiens, UniProt Q15562); assay: TEAD2-TAZ HTRF (TR-FRET) protein-protein interaction assay; settings: for TEAD2 TAZ HTRF combined: Max % Inhibition: TEAD2, TAZ peptide; for EC50: TEAD2-TAZ HTRF, TR-FRET 665 nm/615 nm, read-out: TEAD2 TAZ HTRF combined: EC50
Description: as §1

[3] = target: TEAD3 TAZ (amino acids 13-57) (Homo sapiens, UniProt Q99594); assay: TEAD3-TAZ HTRF (TR-FRET) protein-protein interaction assay; settings: for TEAD3 TAZ HTRF combined: Max % Inhibition: TEAD3, TAZ peptide; for EC50: TEAD3-TAZ HTRF, TR-FRET 665 nm/615 nm, read-out: TEAD3 TAZ HTRF combined: EC50
Description: as §1

[4] = target: TEAD4 TAZ (amino acids 13-57) (Homo sapiens, UniProt Q15561); assay: TEAD4-TAZ HTRF (TR-FRET) protein-protein interaction assay; settings: for TEAD4 TAZ HTRF combined: Max % Inhibition: TEAD4, TAZ peptide; for EC50: TEAD4-TAZ HTRF, TR-FRET 665 nm/615 nm, read-out: TEAD4 TAZ HTRF combined: EC50
Description: as §1

Sequence of TEAD4 YAP50-100 (Q15561 217-434 limits assumed): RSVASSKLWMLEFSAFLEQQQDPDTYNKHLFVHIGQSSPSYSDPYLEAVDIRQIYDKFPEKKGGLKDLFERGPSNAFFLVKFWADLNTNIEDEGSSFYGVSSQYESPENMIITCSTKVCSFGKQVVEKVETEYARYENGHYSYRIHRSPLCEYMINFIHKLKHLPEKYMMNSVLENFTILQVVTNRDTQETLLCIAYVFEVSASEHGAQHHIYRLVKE
Sequence of TEAD4 TAZ (amino acids 13-57) (Q15561 217-434 limits assumed): as above
Sequence of TEAD3 TAZ (amino acids 13-57) (Q99594 173-435 limits assumed): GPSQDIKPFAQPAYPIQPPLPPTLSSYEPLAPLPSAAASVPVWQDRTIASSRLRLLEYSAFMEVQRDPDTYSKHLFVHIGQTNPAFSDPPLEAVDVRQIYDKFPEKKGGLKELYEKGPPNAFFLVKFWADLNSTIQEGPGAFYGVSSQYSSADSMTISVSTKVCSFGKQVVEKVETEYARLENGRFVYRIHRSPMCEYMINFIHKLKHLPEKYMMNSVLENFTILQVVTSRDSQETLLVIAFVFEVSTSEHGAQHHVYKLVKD
Sequence of TEAD3 YAP50-100 (Q99594 173-435 limits assumed): as above
Sequence of TEAD1 TAZ (amino acids 13-57) (P28347 167-426 limits assumed): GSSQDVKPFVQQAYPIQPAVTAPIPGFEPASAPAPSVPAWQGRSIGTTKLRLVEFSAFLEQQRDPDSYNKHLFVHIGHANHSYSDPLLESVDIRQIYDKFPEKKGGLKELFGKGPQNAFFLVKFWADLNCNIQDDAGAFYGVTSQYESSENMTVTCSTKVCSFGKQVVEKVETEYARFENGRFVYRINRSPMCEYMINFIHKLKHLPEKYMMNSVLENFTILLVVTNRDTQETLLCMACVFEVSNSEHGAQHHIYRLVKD
Sequence of TEAD1 YAP50-100 (P28347 167-426 limits assumed): as above
Sequence of TEAD2 YAP50-100 (Q15562 217-447): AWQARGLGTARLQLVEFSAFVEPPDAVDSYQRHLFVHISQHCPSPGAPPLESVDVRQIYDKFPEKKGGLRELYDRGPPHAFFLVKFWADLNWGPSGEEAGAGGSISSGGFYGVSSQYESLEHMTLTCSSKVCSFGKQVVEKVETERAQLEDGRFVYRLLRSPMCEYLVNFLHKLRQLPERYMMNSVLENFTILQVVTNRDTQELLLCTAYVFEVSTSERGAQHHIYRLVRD
Sequence of TEAD2 TAZ (amino acids 13-57) (Q15562 217-447): as above

Row | SMILES | TEAD1 YAP50-100 HTRF combined: Max % Inhibition (TEAD1 YAP50-100) [%] | EC50 (TEAD1 YAP50-100) [nM] | TEAD2 YAP50-100 HTRF combined: Max % Inhibition (TEAD2 YAP50-100) [%] | EC50 (TEAD2 YAP50-100) [nM] | TEAD3 YAP50-100 HTRF combined: Max % Inhibition (TEAD3 YAP50-100) [%] | EC50 (TEAD3 YAP50-100) [nM] | TEAD4 YAP50-100 HTRF combined: Max % Inhibition (TEAD4 YAP50-100) [%] | EC50 (TEAD4 YAP50-100) [nM] | TEAD1 TAZ HTRF combined: Max % Inhibition [1] [%] | EC50 [1] [nM] | TEAD2 TAZ HTRF combined: Max % Inhibition [2] [%] | EC50 [2] [nM] | TEAD3 TAZ HTRF combined: Max % Inhibition [3] [%] | EC50 [3] [nM] | TEAD4 TAZ HTRF combined: Max % Inhibition [4] [%] | EC50 [4] [nM]
1 | Cc1nccnc1-c1nn2c(=O)cc(-c3ccc(C4CCCCC4)cc3)[nH]c2c1C(=O)N1C[C@@H](CF)[C@H]1C (single isomer, unassigned) [Isomer A, Example 41] | 69.0 | 150 | 26.0 | 60 | 74.0 | 530 | 51.0 | 5500 | 53.5 | 180 | 35.0 | 50 | 70.0 | 690 | 51.5 | 4900
2 | Cc1nccnc1-c1nn2c(=O)cc(-c3ccc(CC4CCCC4)cc3)[nH]c2c1C(=O)N1C[C@@H](CF)[C@H]1C (single isomer, unassigned) [Isomer A, Example 42] | 64.0 | 80 | 45.0 | 20 | 69.5 | 320 | 48.5 | 4850 | 49.0 | 80 | 57.0 | 20 | 66.0 | 340 | 20.0 | 1100
3 | C[C@H]1[C@@H](CF)CN1C(=O)c1c(-c2ncccn2)nn2c(=O)cc(-c3ccc(CC4CCCC4)cc3)[nH]c12 (single isomer, unassigned) [Isomer A, Example 43] | 64.0 | 30 | 71.0 | 10 | 58.5 | 60 | 52.0 | 10 | 54.5 | 30 | 63.0 | 10 | 52.0 | 60 | 52.0 | 10
4 | C[C@H]1[C@@H](CF)CN1C(=O)c1c(-c2cnccn2)nn2c(=O)cc(-c3ccc(CC4CCCC4)cc3)[nH]c12 (single isomer, unassigned) [Isomer A, Example 44, Cis-5-(4-(cyclopentylmethyl)phenyl)-3-(3-(fluoromethyl)-2-methylazetidine-1-carbonyl)-2-(pyrazin-2-yl)pyrazolo[1,5-a]pyrimidin-7(4H)-one] | 64.0 | 60 | 52.0 | 40 | 65.5 | 1050 | 40.0 | 9350 | 52.0 | 70 | 56.5 | 40 | 64.0 | 1200 | 42.0 | 9500
5 | C[C@@H]1[C@H](CF)CN1C(=O)c1c(-c2cnccn2)nn2c(=O)cc(-c3ccc(C4CCCCC4)cc3)[nH]c12 (single isomer, unassigned) [Isomer B, Example 39] | 62.0 | 170 | 17.5 | 170 | 67.0 | 2450 | 46.0 | 6450 | 55.0 | 170 | 37.0 | 190 | 68.0 | 2500 | 49.5 | 6200
